Molecules are shown by their SMILES. Peptide text beside a SMILES is read from it. * marks the point of attachment. Acryloyl = C=CC(=O)*

The record followed here is publication PMC5464773 (eLife, 2017).

Holding throughout (test): BH3 profiling, mitochondrial depolarization (JC-1) in permeabilized cells
Assay type in all cases: cell-based

Experiment [1] relates to BCR-ABL-expressing B-lineage acute lymphoblastic leukemia cells dependent on Bfl-1. On the set-up: key to Bottom (best-fit value) / Top (best-fit value): % depolarization, normalized to DMSO (0) and FCCP (100) controls. The conditions noted are these: BH3 profiling fits Bfl-1, sigmoidal dose-response (variable slope). Here is the method:
(§1) Cell line identities were confirmed by STR profiling.
(§2) Peptides were titrated by serial dilution in MEB buffer (150 mM Mannitol, 10 mM HEPES-KOH pH 7.5, 50 mM KCl, 0.02 mM EGTA, 0.02 mM EDTA, 0.1% BSA and 5 mM Succinate) containing 20 μg/mL oligomycin, 50 μg/mL digitonin, 2 μM JC-1 and 10 mM 2-mercaptoethanol in 384-well plates. Controls for no depolarization (1% DMSO) and complete depolarization with the mitochondrial oxidative phosphorylation uncoupler FCCP (20 μM) were included for data normalization. […] 15 μL of cell suspension was added to each well containing 15 μL of treatment solution. […] To produce percent depolarization, the area under the resultant curve was calculated and normalized to the assay controls. Peptide titration curves were fit to sigmoidal dose-response curves using Graphpad PRISM seven to obtain EC50 values.

The subject of experiment [2] is BCR-ABL-expressing B-lineage acute lymphoblastic leukemia cells dependent on Mcl-1. The conditions noted are these: BH3 profiling fits Mcl-1, sigmoidal dose-response (variable slope). The protocol: as §1, §2
The subject of experiment [3] is BCR-ABL-expressing B-lineage acute lymphoblastic leukemia cells dependent on Bcl-xL. The following applies: BH3 profiling fits Bcl-xL, sigmoidal dose-response (variable slope), fit ambiguous. The protocol:
as §1, §2

As for `C=CC(=O)N[C@@H](Cc1c[nH]c2ccccc12)C(=O)N[C@H](C(=O)N[C@@H](CCCNC(=N)N)C(=O)N[C@@H](CCC(=O)O)C(=O)N[C@H](C(=O)N[C@@H](C)C(=O)N[C@@H](C)C(=O)NCC(=O)N[C@@H](CC(C)C)C(=O)N[C@@H](CCCNC(=N)N)C(=O)N[C@@H](CCCNC(=N)N)C(=O)N[C@@H](C)C(=O)N[C@@H](C)C(=O)N[C@@H](CC(=O)O)C(=O)N[C@@H](CC(=O)O)C(=O)N[C@H](C(=O)N[C@@H](CC(N)=O)C(=O)N[C@@H](C)C(=O)N[C@@H](CCC(N)=O)C(=O)N[C@H](C(=O)N[C@@H](CCC(=O)O)C(=O)N[C@@H](CCCNC(=N)N)C(N)=O)C(C)C)C(C)C)[C@@H](C)CC)C(C)C` [FS2gX] (Acryloyl-WVREIAAGLRRAADDVNAQVER-NH2), the “HillSlope (best-fit value)” value in experiment [1] was 0.7987; in experiment [2], 0.1762; in experiment [3], ~ -0.02698. Besides, the “Bottom (best-fit value)” value in experiment [1] (constraint Bottom < 5) is -3.828; in experiment [2] (constrained (0 < Bottom < 5 or Bottom < 5)), -6.58; in experiment [3] (constraint Bottom < 5), ~ -1647. The “Top (best-fit value)” value in experiment [1] (constraint Top > 78) is 78.27; in experiment [2] (constrained (Top < 100 or Top > 78)), ~ 78; in experiment [3] (constraint Top > 78) it was ~ 78. The “LogEC50 (best-fit value)” value in experiment [1] (x = Log [Peptide] M, 55-56 Y values analyzed) is reported as -8.01.
